This assay deals with Mycobacterium tuberculosis. As to the kind of experiment: Antimicrobial activity against multidrug-resistant Mycobacterium tuberculosis isolate after 2 to 4 weeks by two fold dilution method. The format is functional.

In brackets after ≈: the same amount, converted by molar mass.

Broadly, the MIC is the lowest concentration found to suppress growth. The MIC50 is the lowest concentration that inhibits either 50% of growth or 50% of the strains tested, depending on the study. A lower MIC50 goes with greater potency. One may read the MIC90 as an inhibitory concentration at the 90% level, which refers to growth in some studies and to a panel of isolates in others. Read a low MIC90 as higher susceptibility. Compound `COc1nc2ccc(Br)cc2cc1[C@@H](c1ccccc1)[C@@](O)(CCN(C)C)c1cccc2ccccc12` [BEDAQUILINE] gave an MIC of 0.004 µg/mL (≈ 0.0072 µM), an MIC50 of 0.03 µg/mL (≈ 0.054 µM) and an MIC90 of 0.06 µg/mL (≈ 0.108 µM).

Values taken from ChEMBL document CHEMBL1137640, “In vitro antimycobacterial spectrum of a diarylquinoline ATP synthase inhibitor” (2007).
